# Several values for one entry are separate records, joined by “and”; a condition that tells them apart may be missing. Equal values may be shown once.
# Legend:
# [1] = tested on: Human eosinophils; experiment: Eosinophil extracellular superoxide production (cytochrome c); type: cell-based; conditions: 1 hr pretreatment at 37° C.; IL-5 or PAF stimulus
# Experimental: (§1) Human eosinophils were isolated from atopic and non-atopic donors using density centrifugation and CD16-magnetic bead negative selection. Eosinophil purity was always>93%.
# Statistical analyses were performed using the Student's paired t-test; significance defined as p value<0.05 compared to “nil” or 0.0 microM HCQ.
# The general procedure described hereinabove was followed. Eosinophils were pretreated with HCQ for 1 hr at 37° C. and then stimulated as described in FIG. 1 in 96-well plates (50,000 cells/well). Extracellular superoxide was detected using cytochrome c and a 96-well plate reader.
# [2] = tested on: Human eosinophils; experiment: IL-5 stimulated eosinophil degranulation, EDN release by DARIA; type: cell-based
# From the text: FIG. 2 graphically depicts the effect of HCQ on IL-5 stimulated eosinophil degranulation as measured by release of eosinophil-derived neurotoxin. In this figure, EDN refers to eosinophil-derived neurotoxin.
# as §1
# The general procedure described hereinabove and Example 1 was followed. Supernatants from superoxide assay samples were analyzed for EDN by Double-Antibody Radioimmunoassay (DARIA). The results are depicted in FIG. 2.
# [3] = tested on: Human eosinophils; experiment: IL-5 stimulated eosinophil survival by flow cytometry; type: cell-based; conditions: 100 pg/ml IL-5, four days, compared with dexamethasone
# Experimental: as §1
# Flow cytometry was performed on a Becton Dickenson FACScan. Data was analyzed using CellQuest software. For cell surface marker determination, specific antibodies directly conjugated with the fluorescent indicator, phycoerythrin (PE) were utilized.
# The general procedure described hereinabove was followed. Eosinophils were incubated with 100 pg/ml IL-5 with or without dexamethasone or HCQ. After four days, eosinophil viability was measured by flow cytometry. The results are depicted in FIG. 3.
# [4] = tested on: Primary Human Epithelial Cells (tonsillar); experiment: IP-10/RANTES production in primary epithelial cells exposed to HRV-16; type: cell-based
# Experimental: Primary cultures of harvested human tonsillar epithelial cells were preincubated for 24 hr with 50 microM HCQ. The cells were then exposed to human rhinovirus type 16 (HRV-16) which was left on the cells in the presence and absence of HCQ. Medium was recovered at two different time post infection (24 hr viral incubation and 48 hr viral incubation) and assayed for IP-10 and RANTES. The data is depicted in Table 1 below and in FIG. 5.
# [5] = tested on: BEAS-2B epithelial cells; experiment: IP-10/RANTES production in BEAS-2B cells exposed to HRV-16; type: cell-based; conditions: 48 hr
# Experimental: Cells of the BEAS-2B epithelial cell line were preincubated for either 6 hr or 24 hr with varying concentrations of HCQ. Cells were then exposed to human rhinovirus type 16 (HRV-16) which was left on the cells in the presence and absence of HCQ at the concentrations indicated for 48 hr. The data is depicted in Table 2 and FIG. 13.
# [6] = tested on: human tracheal epithelial cells; experiment: Pro-inflammatory mRNA in tracheal epithelial cultures infected with RV16, RT-PCR; type: cell-based; conditions: 50 microM HCQ, RV16 infection
# Experimental: Differentiated cultures of human tracheal cells grown at an air liquid interface were pre-incubated for 12h with 50 microM HCQ prior to 12 h infection with human rhinovirus type 16 (HRV-16). Twelve hours after removal of virus, levels of mRNA for RANTES, ICAM-1, IL-1beta, TNF-alpha and IL-6 were quantified using multiplex two-step (TaqMan) RT-PCR. The results are depicted in FIGS. 6-10.
# (§2) FIG. 6 graphically depicts the effects of HCQ on the release of RANTES (regulated on activation normal T-cell expressed and secreted) in cultured human tracheal epithelial cells. In the figure, RV16-p3 refers to the rhinovirus strain. Human tracheal epithelial cells were cultured for 14 days in serum-free growth media. On day 14, the cultures were divided into four groups. Two groups were pre-treated for 6 hours with HCQ (final concentration 50 microM) in media administered via the basolateral side. Then RV-16-p3 at a tissue culture infectious dose (TCID50) of 10^6/ml was added to one of groups receiving HCQ and one of thgroups not pretreated with HCQ. Phosphate buffered saline (PBS) was added to the other two groups, creating four conditions: media alone (control), HCQ alone, RV-16-p3 alone and RV-16-p3+HCQ. After six hours, the experimental suspensions were removed and the cells were washed three times with PBS. Cells were allowed to recover for 24h and then the mucosal surfaces of the culture inserts were flushed with 500 microL of PBS and the flushings were retained.
# The filters containing the cell sheets were cut in half and placed in RLT buffer (Rneasy lysis buffer) or fixed in 10% buffered formalin prior to their preparation for fluorescence in situ hybridization (FISH) and gene expression analysis as described in detail elsewhere (Lopez-Souza N, et al., Resistance of differentiated human airway epithelium to infection by rhinovirus, Am J Physiol Lung Cell Mol Physiol, 2004;286:L373-81). Levels of mRNA for RANTES were determined in cell lysates using a two-step method of gene transcript profiling in which multiplex RT-PCR is combined with individual gene quantification via real-time PCR on generated cDNA product.
# as §2, with “FIG. 7” for “FIG. 6”, “the upregulation” for “the release”, “of for intercellular adhision molecule 1 (ICAM-1)” for “of RANTES (regulated on activation normal T-cell expressed and secreted)”, “strain. ICAM refers to intracellular adhesion molecule 1.” for “strain.”, “of the groups” for “of thgroups”
# FIG. 8 graphically depicts the effects of HCQ on the release of IL-1beta and TNF-alpha in cultured human tracheal epithelial cells. In the figure, RV16-p3 refers to the rhinovirus strain. IL-1 beta refers to Interleukin-1 beta. […]
# [7] = Single-dose intravenous HCQ pharmacokinetics in rats; type: in vivo; conditions: for Tmax / Vd / clearance / half-life / AUC(0-inf) / Cmax / AUC(0-t): both sexes, rat, whole blood; for Tmax / Vd / clearance / AUC(0-inf) / Cmax / AUC(0-t): single day; for half-life: 2-compartment model, read-out: Apparent Terminal t1/2 (converted); for AUC(0-t): read-out: AUC0-23
# Experimental: Twelve rats per dose group (six M: six F) received hydroxychloroquine sulfate, USP as an intravenous bolus injected over 30 minutes.
# Following the single injection, blood samples were drawn from rat pairs at one, three, six, 12, 24, 36, 48, 192, 360, and 1,032 hours.
# [8] = Single-dose intravenous HCQ pharmacokinetics in dogs; type: in vivo, Beagle dogs; conditions: for AUC(0-inf) / Cmax / AUC(0-t) / half-life / Tmax / Vd / clearance: both sexes, beagle, dog, whole blood; for AUC(0-inf) / Cmax / AUC(0-t) / Tmax / Vd / clearance: single day; for AUC(0-t): read-out: AUC0-23; for half-life: 2-compartment model, read-out: Apparent terminal t1/2 (converted)
# Experimental: Two Beagle dogs per dose group (one M: one F) received hydroxychloroquine sulfate, USP as an intravenous bolus infusion over 30 minutes.
# Following the single injection, blood samples were drawn at one, two, three, five, six, seven, eight, 12, 18, 24, 36, 120, 192, 264, 360, 528, 696, 864 and 1,032 hours.
# [9] = conventional oral doses 4-6 mg/kg/day, after 3 months therapy, two clinical trials; cited from earlier work
# [10] = tested on: leukocytes; conditions: ex vivo and in vitro experiments; cited from earlier work
# [11] = lupus erythematosus and rheumatoid arthritis; cited from earlier work
# [12] = asthma, oral HCQ; cited from earlier work
# [13] = tested on: neutrophil, macrophages, T cell; conditions: at concentrations in the range obtained by targeted delivery; cited from earlier work
# [14] = rats, intravenous, 10 mg/kg/day
smiles,measurement,setting,value
"CCN(CCO)CCCC(C)Nc1ccnc2cc(Cl)ccc12 (centres unmarked) [HCQ, hydroxychloroquine]",HCQ concentration at which IL-5 or PAF induced eosinophil superoxide is inhibited,[1],at least 0.5 mM and ≥ 200 mcg/ml
same,HCQ concentration at which eosinophil degranulation is inhibited,[2],> 100 µM
same,eosinophil survival,[3],"actively shortens eosinophil survival, to a much greater extent than a comparative dose of dexamethasone"
same,IP-10: hrs of preincubation 24,"[4]; HRV-16 + 50 microM HCQ, 24",31 pg/mL
same,IP-10: hrs of preincubation 48,"[4]; HRV-16 + 50 microM HCQ, 48",112 pg/mL
same,RANTES: hrs of preincubation 48,"[4]; HRV-16 + HCQ, 48",509 pg/mL
same,IP-10: 6 hrs preincubation,[5]; HRV-16 + 0.01 mM HCQ,3084 pg/mL
same,IP-10: 24 hrs preincubation,[5]; HRV-16 + 0.01 mM HCQ,2506 pg/mL
same,RANTES: 6 hrs preincubation,[5]; HRV-16 + 0.01 mM HCQ,3326 pg/mL
same,IP-10: 6 hrs preincubation,[5]; HRV-16 + 0.1 mM HCQ,2914 pg/mL
same,IP-10: 24 hrs preincubation,[5]; HRV-16 + 0.1 mM HCQ,1814 pg/mL
same,RANTES: 6 hrs preincubation,[5]; HRV-16 + 0.1 mM HCQ,3128 pg/mL
same,IP-10: 6 hrs preincubation,[5]; HRV-16 + 1 mM HCQ,3045 pg/mL
same,IP-10: 24 hrs preincubation,[5]; HRV-16 + 1 mM HCQ,2098 pg/mL
same,RANTES: 6 hrs preincubation,[5]; HRV-16 + 1 mM HCQ,1994 pg/mL
same,IP-10: 6 hrs preincubation,[5]; HRV-16 + 50 mM HCQ,31 pg/mL
same,IP-10: 24 hrs preincubation,[5]; HRV-16 + 50 mM HCQ,31 pg/mL
same,RANTES: 6 hrs preincubation,[5]; HRV-16 + 50 mM HCQ,0 pg/mL
same,release of IL-1beta,[6],rapidly block
same,release of IL-6,[6],rapidly block
same,release of IL-8,[6],rapidly block
same,release of TNF-alpha,[6],rapidly block
same,up-regulation of ICAM-1,[6],rapidly block
same,Tmax,"[7]; rats, intravenous, 5 mg/kg/day",0.5 h
same,Vd,"[7]; rats, intravenous, 5 mg/kg/day",11.1 L/kg
same,clearance,"[7]; rats, intravenous, 5 mg/kg/day",20 mL/min/kg
same,half-life,"[7]; rats, intravenous, 5 mg/kg/day",7.5 h
same,Tmax,[7]; [14],0.5 h
same,Vd,[7]; [14],11.2 L/kg
same,clearance,[7]; [14],21.7 mL/min/kg
same,half-life,[7]; [14],7.4 h
same,AUC(0-inf),"[7]; rats, intravenous, 5 mg/kg/day",6560 ng·h/mL
same,Cmax,"[7]; rats, intravenous, 5 mg/kg/day",1020 ng/mL
same,AUC(0-t),"[7]; rats, intravenous, 5 mg/kg/day",4050 ng·h/mL
same,AUC(0-inf),[7]; [14],11000 ng·h/mL
same,Cmax,[7]; [14],1740 ng/mL
same,AUC(0-t),[7]; [14],7220 ng·h/mL
same,peak concentrations as fraction of those required,"[7]; rats and dogs, intravenous, versus concentrations needed for in vitro effects",1/100
same,peak serum concentrations,"[7]; rats, intravenous 10 mg/kg",2 µg/mL
same,peak whole blood concentrations,[8],less than 3 mcg/ml
same,AUC(0-inf),[8]; 5 mg/kg/day,24200 ng·h/mL
same,Cmax,[8]; 5 mg/kg/day,1200 ng/mL
same,AUC(0-t),[8]; 5 mg/kg/day,8160 ng·h/mL
same,AUC(0-inf),[8]; 10 mg/kg/day,82100 ng·h/mL
same,Cmax,[8]; 10 mg/kg/day,2700 ng/mL
same,AUC(0-t),[8]; 10 mg/kg/day,30900 ng·h/mL
same,half-life,[8]; 5 mg/kg/day,20.8 h
same,Tmax,[8]; 5 mg/kg/day,0.5 h
same,Vd,[8]; 5 mg/kg/day,9.1 L/kg
same,clearance,[8]; 5 mg/kg/day,5 mL/min/kg
same,half-life,[8]; 10 mg/kg/day,35 h
same,Tmax,[8]; 10 mg/kg/day,0.5 h
same,Vd,[8]; 10 mg/kg/day,6.1 L/kg
same,clearance,[8]; 10 mg/kg/day,1.67 mL/min/kg
same,therapeutic benefit in IBD,[9],in neither was a consistent therapeutic benefit evident
same,incubation time to effect on leukocytes,[10],less than 1 hour
same,onset of action,[11],3-4 months
same,treatment time before therapeutic effect begins,[12],24-26 weeks
same,"neutrophil and macrophage superoxide release, macrophage release of TNF-alpha, IL-6, Interferon-gamma and T cell activation",[13],inhibited

# — patent US20040220220A1, “Method for treating inflammatory bowel disease” (priority 2001, published 2004)
